Publication PMC7520961, “Safety evaluation of the interchangeable use of robenacoxib in commercially-available tablets and solution for injection in cats” (BMC Veterinary Research, 2020)
Entries after “also recorded” stand apart in the source; their conditions may differ.

What was measured:
[1] = tested on: cats; set-up: method as in ref 12 = [12]; 12. US Food and Drug Administration Freedom of Information Summary: Original New Animal Drug Application NADA 141–320 (Onsior Robenacoxib Tablets for Cats) 2011.; details: six-month target animal safety study, oral robenacoxib at 1, 3 and 5X; cited from earlier work
[2] = tested on: cats; details: in vivo
[3] = tested on: cats; details: in vivo; remark: listed apart in the source
[4] = tested on: anesthetized cats; set-up: method as in ref 24 = [24]; 24. Panteri A Deurinck M Seewald W Gerber S King JN Desevaux C Safety of intravenous Robenacoxib (Onsior) in cats J Vet Pharmacol Ther 2015 38 S1 149; details: single dose SC 2 mg/kg or 2 or 4 mg/kg IV, 5 or 60 min post administration; cited from earlier work
[5] = tested on: cats; details: in vivo; remark: listed apart in the source
Experimental: Necropsies were performed in cage order. All animals were euthanized on Day 38 by intramuscular sedation with ketamine followed approximately 30 min later in a different room by an intravenous overdose of sodium pentobarbital solution and exsanguination, under procedures approved by a veterinary pathologist and according to the study site’s standard operating procedures. After a complete post-mortem evaluation, tissue samples were collected for histopathological analysis. Additionally, the following organs were weighed before tissues were collected: adrenal gland, aorta, brain, epididymis, heart, kidney, liver, lung with bronchi, ovary, pituitary, prostate, salivary gland (mandibular), spleen, testis, thymus, thyroid gland (with parathyroid), and uterus with cervix. In order to correct for body weight and size, the ratio of organ weight to body weight and brain weight was calculated for each animal. Tissues, including any gross lesions identified during the necropsy, were fixed in neutral buffered formalin, except the eye including optic nerve and testes were fixed using a modified Davidson’s fixative [36]. Tissue sections were stained with hematoxylin and eosin and evaluated by a board-certified veterinary pathologist. A bone marrow smear was collected from a rib at necropsy and analyzed qualitatively by a board-certified veterinary clinical pathologist.

[6] = Toxicokinetics: robenacoxib concentration in blood by LC-MS/MS; assay type: in vivo, cat
Experimental: Approximately 0.5 mL of whole blood was collected from animals via the jugular vein and placed in tubes containing K2EDTA. Samples were collected within 30 minutes prior to dosing and at 0.75, and 4 hours postdose on Days 1, 4, 7, 10, 17, 30, and 37. A single 0.5 mL sample was collected from all animals 4 hours postdose on Days 8, 11, 14, 28, 31, and 34. The animals were fasted for predose and 0.75 hour blood collections and were fed 2 to 3 hours after dose administration. Samples were stored frozen (-10 to […]) within approximately 1 hour after collection until analyzed. Day 1 blood samples were inadvertently processed to plasma and therefore not analyzed.
Robenacoxib was quantitatively analyzed in blood using a validated analytical method involving liquid chromatography with tandem mass spectrometry detection (LC-MS/MS) that has been previously describe. Performance of the method was monitored by low, medium and high quality control samples, where inter-run %RSD (relative standard deviation) was 8.3, 7.4, and 5.8, respectively.
Only abbreviated toxicokinetic sampling was performed so as not to interfere with the primary objective of the study. Concentrations below the limit of quantification were considered 0.

[7] = tested on: healthy adult domestic short-hair cats; set-up: method as in ref 13 = [13]; 13. US Food and Drug Administration Freedom of Information Summary: Original New Animal Drug Application NADA 141–443 (Onsior Robenacoxib Injection Cats) 2015.; details: 10 mg/kg robenacoxib solution for injection for three consecutive days; cited from earlier work

## CCc1ccc(Nc2c(F)c(F)cc(F)c2F)c(CC(=O)O)c1 [robenacoxib]
[1]
  QT interval effect: dose-dependent QT prolongation
  arrhythmias: no arrhythmias were documented
[2]
  QT duration vs control (RR interval as covariate): No prolongation
  QT interval, average post-treatment: approximately 160 ms
  QT interval, average pretest values: approximately 140 ms
  mean baseline heart rate: approximately 305 bpm
  mean heart rate post treatment: 260-277 bpm
  qualitative assessment of electrocardiograms: qualitatively normal
[3]
  opthalmoscopic, physical and neurological examinations: no treatment-related effects
[4]
  electrocardiographic changes (including QT interval): no electrocardiographic changes
[5]
  Robenacoxib-related microscopic findings: increased injection site subacute/chronic inflammation
  absolute liver weight increase compared to control: 14%
  severity of injection site inflammation observations: minimal
[6]; 1X, SC 2.0 mg/kg/day, Study Day 8, 4 h postdose
  plasma robenacoxib concentration (mean ± SD): 98.2 ± 60.7 ng/mL
[6]; 1X, SC 2.0 mg/kg/day, Study Day 10, 0.75 h postdose
  plasma robenacoxib concentration (mean ± SD): 1124.1 ± 325.9 ng/mL
[6]; 1X, SC 2.0 mg/kg/day, Study Day 10, 4 h postdose
  plasma robenacoxib concentration (mean ± SD): 79.1 ± 51.5 ng/mL
[6]; 1X, SC 2.0 mg/kg/day, Study Day 28, 4 h postdose
  plasma robenacoxib concentration (mean ± SD): 117.2 ± 86.1 ng/mL
[6]; 1X, SC 2.0 mg/kg/day, Study Day 30, 0.75 h postdose
  plasma robenacoxib concentration (mean ± SD): 1358.6 ± 254.5 ng/mL
[6]; 1X, SC 2.0 mg/kg/day, Study Day 30, 4 h postdose
  plasma robenacoxib concentration (mean ± SD): 94.8 ± 68.3 ng/mL
[6]; 1X, oral ≥2.4 mg/kg/day, Study Day 4, 0.75 h postdose
  plasma robenacoxib concentration (mean ± SD): 2593.1 ± 909.5 ng/mL
[6]; 1X, oral ≥2.4 mg/kg/day, Study Day 4, 4 h postdose
  plasma robenacoxib concentration (mean ± SD): 22.9 ± 11.6 ng/mL
[6]; 1X, oral ≥2.4 mg/kg/day, Study Day 7, 0.75 h postdose
  plasma robenacoxib concentration (mean ± SD): 2591.3 ± 875.5 ng/mL
[6]; 1X, oral ≥2.4 mg/kg/day, Study Day 7, 4 h postdose
  plasma robenacoxib concentration (mean ± SD): 26.9 ± 27.4 ng/mL
[6]; 1X, oral ≥2.4 mg/kg/day, Study Day 11, 4 h postdose
  plasma robenacoxib concentration (mean ± SD): 34.9 ± 36.2 ng/mL
[6]; 1X, oral ≥2.4 mg/kg/day, Study Day 14, 4 h postdose
  plasma robenacoxib concentration (mean ± SD): 19.0 ± 7.3 ng/mL
[6]; 1X, oral ≥2.4 mg/kg/day, Study Day 17, 0.75 h postdose
  plasma robenacoxib concentration (mean ± SD): 2811.3 ± 1502.1 ng/mL
[6]; 1X, oral ≥2.4 mg/kg/day, Study Day 17, 4 h postdose
  plasma robenacoxib concentration (mean ± SD): 42.7 ± 49.7 ng/mL
[6]; 1X, oral ≥2.4 mg/kg/day, Study Day 31, 4 h postdose
  plasma robenacoxib concentration (mean ± SD): 27.2 ± 16.0 ng/mL
[6]; 1X, oral ≥2.4 mg/kg/day, Study Day 34, 4 h postdose
  plasma robenacoxib concentration (mean ± SD): 35.3 ± 28.5 ng/mL
[6]; 1X, oral ≥2.4 mg/kg/day, Study Day 37, 0.75 h postdose
  plasma robenacoxib concentration (mean ± SD): 2717.6 ± 1589.6 ng/mL
[6]; 1X, oral ≥2.4 mg/kg/day, Study Day 37, 4 h postdose
  plasma robenacoxib concentration (mean ± SD): 90.4 ± 106.6 ng/mL
[6]; 2X, SC 4.0 mg/kg/day, Study Day 8, 4 h postdose
  plasma robenacoxib concentration (mean ± SD): 233.6 ± 215.8 ng/mL
[6]; 2X, SC 4.0 mg/kg/day, Study Day 10, 0.75 h postdose
  plasma robenacoxib concentration (mean ± SD): 1481.3 ± 359.7 ng/mL
[6]; 2X, SC 4.0 mg/kg/day, Study Day 10, 4 h postdose
  plasma robenacoxib concentration (mean ± SD): 263.1 ± 249.4 ng/mL
[6]; 2X, SC 4.0 mg/kg/day, Study Day 28, 4 h postdose
  plasma robenacoxib concentration (mean ± SD): 236.6 ± 130.2 ng/mL
[6]; 2X, SC 4.0 mg/kg/day, Study Day 30, 0.75 h postdose
  plasma robenacoxib concentration (mean ± SD): 1821.6 ± 817.9 ng/mL
[6]; 2X, SC 4.0 mg/kg/day, Study Day 30, 4 h postdose
  plasma robenacoxib concentration (mean ± SD): 326.0 ± 276.7 ng/mL
[6]; 2X, oral ≥4.8 mg/kg/day, Study Day 4, 0.75 h postdose
  plasma robenacoxib concentration (mean ± SD): 5177.5 ± 2229.5 ng/mL
[6]; 2X, oral ≥4.8 mg/kg/day, Study Day 4, 4 h postdose
  plasma robenacoxib concentration (mean ± SD): 54.2 ± 28.5 ng/mL
[6]; 2X, oral ≥4.8 mg/kg/day, Study Day 7, 0.75 h postdose
  plasma robenacoxib concentration (mean ± SD): 3383.8 ± 1818.8 ng/mL
[6]; 2X, oral ≥4.8 mg/kg/day, Study Day 7, 4 h postdose
  plasma robenacoxib concentration (mean ± SD): 67.8 ± 58.5 ng/mL
[6]; 2X, oral ≥4.8 mg/kg/day, Study Day 11, 4 h postdose
  plasma robenacoxib concentration (mean ± SD): 66.6 ± 57.4 ng/mL
[6]; 2X, oral ≥4.8 mg/kg/day, Study Day 14, 4 h postdose
  plasma robenacoxib concentration (mean ± SD): 53.8 ± 59.0 ng/mL
[6]; 2X, oral ≥4.8 mg/kg/day, Study Day 17, 0.75 h postdose
  plasma robenacoxib concentration (mean ± SD): 4160.0 ± 1166.0 ng/mL
[6]; 2X, oral ≥4.8 mg/kg/day, Study Day 17, 4 h postdose
  plasma robenacoxib concentration (mean ± SD): 64.5 ± 54.7 ng/mL
[6]; 2X, oral ≥4.8 mg/kg/day, Study Day 31, 4 h postdose
  plasma robenacoxib concentration (mean ± SD): 101.5 ± 152.6 ng/mL
[6]; 2X, oral ≥4.8 mg/kg/day, Study Day 34, 4 h postdose
  plasma robenacoxib concentration (mean ± SD): 92.2 ± 58.5 ng/mL
[6]; 2X, oral ≥4.8 mg/kg/day, Study Day 37, 0.75 h postdose
  plasma robenacoxib concentration (mean ± SD): 4009.4 ± 1765.2 ng/mL
[6]; 2X, oral ≥4.8 mg/kg/day, Study Day 37, 4 h postdose
  plasma robenacoxib concentration (mean ± SD): 80.0 ± 62.6 ng/mL
[6]; 3X, SC 6.0 mg/kg/day, Study Day 8, 4 h postdose
  plasma robenacoxib concentration (mean ± SD): 723.3 ± 250.8 ng/mL
[6]; 3X, SC 6.0 mg/kg/day, Study Day 10, 0.75 h postdose
  plasma robenacoxib concentration (mean ± SD): 2461.3 ± 1075.8 ng/mL
[6]; 3X, SC 6.0 mg/kg/day, Study Day 10, 4 h postdose
  plasma robenacoxib concentration (mean ± SD): 390.2 ± 236.2 ng/mL
[6]; 3X, SC 6.0 mg/kg/day, Study Day 28, 4 h postdose
  plasma robenacoxib concentration (mean ± SD): 394.8 ± 187.7 ng/mL
[6]; 3X, SC 6.0 mg/kg/day, Study Day 30, 0.75 h postdose
  plasma robenacoxib concentration (mean ± SD): 2878.8 ± 831.4 ng/mL
[6]; 3X, SC 6.0 mg/kg/day, Study Day 30, 4 h postdose
  plasma robenacoxib concentration (mean ± SD): 418.7 ± 246.2 ng/mL
[6]; 3X, oral ≥7.2 mg/kg/day, Study Day 4, 0.75 h postdose
  plasma robenacoxib concentration (mean ± SD): 5511.8 ± 3389.8 ng/mL
[6]; 3X, oral ≥7.2 mg/kg/day, Study Day 4, 4 h postdose
  plasma robenacoxib concentration (mean ± SD): 98.0 ± 48.6 ng/mL
[6]; 3X, oral ≥7.2 mg/kg/day, Study Day 7, 0.75 h postdose
  plasma robenacoxib concentration (mean ± SD): 7267.5 ± 4006.6 ng/mL
[6]; 3X, oral ≥7.2 mg/kg/day, Study Day 7, 4 h postdose
  plasma robenacoxib concentration (mean ± SD): 76.2 ± 32.2 ng/mL
[6]; 3X, oral ≥7.2 mg/kg/day, Study Day 11, 4 h postdose
  plasma robenacoxib concentration (mean ± SD): 99.2 ± 36.3 ng/mL
[6]; 3X, oral ≥7.2 mg/kg/day, Study Day 14, 4 h postdose
  plasma robenacoxib concentration (mean ± SD): 79.1 ± 38.0 ng/mL
[6]; 3X, oral ≥7.2 mg/kg/day, Study Day 17, 0.75 h postdose
  plasma robenacoxib concentration (mean ± SD): 5798.8 ± 3218.0 ng/mL
[6]; 3X, oral ≥7.2 mg/kg/day, Study Day 17, 4 h postdose
  plasma robenacoxib concentration (mean ± SD): 108.5 ± 67.8 ng/mL
[6]; 3X, oral ≥7.2 mg/kg/day, Study Day 31, 4 h postdose
  plasma robenacoxib concentration (mean ± SD): 94.7 ± 69.7 ng/mL
[6]; 3X, oral ≥7.2 mg/kg/day, Study Day 34, 4 h postdose
  plasma robenacoxib concentration (mean ± SD): 84.2 ± 30.3 ng/mL
[6]; 3X, oral ≥7.2 mg/kg/day, Study Day 37, 0.75 h postdose
  plasma robenacoxib concentration (mean ± SD): 6460.0 ± 3839.3 ng/mL
[6]; 3X, oral ≥7.2 mg/kg/day, Study Day 37, 4 h postdose
  plasma robenacoxib concentration (mean ± SD): 123.2 ± 121.7 ng/mL
[6]; all dose groups
  oral administration vs subcutaneous injection, average concentrations: higher average 0.75 h concentrations and lower average 4 h concentrations
[6]; comparing concentrations 4 h post oral administration (Days 4, 7, 11, 14, 17, 31, 34, 37)
  accumulation of robenacoxib: no accumulation observed after Day 4; also recorded: No robenacoxib accumulation was observed
[7]
  injection site observations: transient, fluid-filled, painless enlargements at the injection sites that disappeared over a period of 72 hours
  microscopic findings at injection sites: minimal subcutaneous inflammatory cell infiltration
